# Calls of active or inactive are those of the source. Rule as the data show it, for most assays here: actives have a measured EC50 and inactives only a lower limit.
# How the values were obtained:
# [1] = inhibitors of SNCA 5'UTR-driven reporter translation, confirmation, H4 neuroglioma cells, luminescence (AID 1988); format: functional, cell-based
# [2] = Luminescence Cell-Based Dose Response HTS to Identify Inhibitors of 5'UTR Stem-Loop Driven Prion Protein mRNA Translation in H4 Neuroglioblastoma Cells. [Related pubchem assays: 1827 (Project Summary), 1813 (Primary HTS)]; format: functional
# [3] = cytotoxicity toward NIH3T3 fibroblasts, dose response, counter-screen, cell-based, ATP luminescence, mouse fibroblasts (AID 2010); format: functional;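 also: cells exposed to compound for about 90 hours before reading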
# [4] = inhibitors of intracellular T. cruzi replication, confirmation, NIH3T3 host cells, beta-gal luminescence (AID 2044); format: functional, cell-based;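 also: intracellular parasites grown in NIH/3T3 mouse fibroblasts as host cells; luminescent beta-galactosidase reporter signal from transgenic T. cruzi replicating inside host cells; inhibitors lower the luminescence signal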
# [5] = inhibitors of firefly luciferase expression or activity, dose response, H4 neuroglioma cells, luminescence (AID 1990); format: functional, cell-based
# [6] = NIH-3T3 fibroblast cytotoxicity, dose response, cytotoxicity control, cell-based, fluorescence, Alamar Blue, secondary assay (AID 2327); format: functional;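 also: NIH-3T3 mouse fibroblasts cultured with fluconazole at 8 µg/mL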
# [7] = C. albicans growth with fluconazole, confirmation, fluorescence, retest (AID 2467); format: functional, cell-based
# [8] = biological target: T1, Heat shock factor protein 1 (Mus musculus, UniProt P38532); assay: HSF1 potentiators in luciferase reporter cells, confirmation, cell-based, NIH3T3, luminescence, dose retest (AID 435004); format: functional;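 also: stress induced by proteasome inhibitor MG132 added 30 min after compound; luciferase reporter driven by HSF1 response element in NIH3T3 cells; actives raise luminescence as potentiators of the MG132 stress response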
# T1 sequence (P38532 whole entry): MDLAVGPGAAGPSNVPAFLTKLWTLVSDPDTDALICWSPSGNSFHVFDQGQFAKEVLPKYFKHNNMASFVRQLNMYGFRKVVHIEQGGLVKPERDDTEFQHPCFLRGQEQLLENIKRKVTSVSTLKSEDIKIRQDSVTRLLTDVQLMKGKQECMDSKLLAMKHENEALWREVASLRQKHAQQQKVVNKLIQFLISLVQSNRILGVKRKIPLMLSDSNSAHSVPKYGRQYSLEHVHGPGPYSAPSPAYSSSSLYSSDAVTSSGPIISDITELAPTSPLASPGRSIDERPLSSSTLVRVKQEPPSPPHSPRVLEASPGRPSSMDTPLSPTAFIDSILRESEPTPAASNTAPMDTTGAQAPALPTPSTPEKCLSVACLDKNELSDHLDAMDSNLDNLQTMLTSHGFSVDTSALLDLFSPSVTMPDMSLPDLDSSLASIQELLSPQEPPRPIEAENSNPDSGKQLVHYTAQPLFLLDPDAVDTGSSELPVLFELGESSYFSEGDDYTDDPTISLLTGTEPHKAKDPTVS
# Cytochrome P450 2D6 = Cytochrome P450 2D6 (Homo sapiens, UniProt P10635);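 also: CYP2D6 member of a cytochrome P450 panel assay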
# Cytochrome P450 2D6, sequence (P10635 whole entry): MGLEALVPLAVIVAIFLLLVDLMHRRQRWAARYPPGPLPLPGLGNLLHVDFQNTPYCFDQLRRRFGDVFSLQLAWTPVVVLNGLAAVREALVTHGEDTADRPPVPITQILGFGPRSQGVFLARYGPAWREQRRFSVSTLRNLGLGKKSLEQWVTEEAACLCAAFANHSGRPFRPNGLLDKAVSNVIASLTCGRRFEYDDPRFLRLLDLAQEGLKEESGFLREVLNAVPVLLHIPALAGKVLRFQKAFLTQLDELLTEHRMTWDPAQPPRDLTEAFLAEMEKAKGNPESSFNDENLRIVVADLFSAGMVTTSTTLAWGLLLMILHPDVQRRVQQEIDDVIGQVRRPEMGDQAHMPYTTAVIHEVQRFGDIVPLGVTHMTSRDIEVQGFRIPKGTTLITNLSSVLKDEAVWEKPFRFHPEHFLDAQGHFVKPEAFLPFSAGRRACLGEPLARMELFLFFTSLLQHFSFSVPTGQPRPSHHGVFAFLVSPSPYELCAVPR
# Cytochrome P450 3A4 = Cytochrome P450 3A4 (Homo sapiens, UniProt P08684);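 also: CYP3A4 tested as one member of a cytochrome P450 panel screen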
# Cytochrome P450 3A4, sequence (P08684 whole entry): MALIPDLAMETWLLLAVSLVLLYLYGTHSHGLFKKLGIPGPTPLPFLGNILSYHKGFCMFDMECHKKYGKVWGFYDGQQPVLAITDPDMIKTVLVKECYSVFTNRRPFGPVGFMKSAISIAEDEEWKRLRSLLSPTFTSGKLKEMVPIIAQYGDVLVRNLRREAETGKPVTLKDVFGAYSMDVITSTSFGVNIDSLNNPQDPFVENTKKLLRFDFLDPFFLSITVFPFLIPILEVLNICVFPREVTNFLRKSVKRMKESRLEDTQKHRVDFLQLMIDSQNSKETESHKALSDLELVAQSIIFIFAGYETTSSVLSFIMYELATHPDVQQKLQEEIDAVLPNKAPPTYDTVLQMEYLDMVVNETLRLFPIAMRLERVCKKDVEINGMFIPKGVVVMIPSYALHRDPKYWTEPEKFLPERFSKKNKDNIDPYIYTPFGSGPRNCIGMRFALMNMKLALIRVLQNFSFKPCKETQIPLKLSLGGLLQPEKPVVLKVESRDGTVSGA
# [9] = Luminescence Cell-Based Dose Retest to Confirm Inhibitors of Cancer Stem Cells. [Related pubchem assays (depositor defined):AID2717, AID2721]; format: functional; conditions: Homo sapiens
# [10] = biological target: T2, Corticotropin-releasing factor receptor 2/Corticotropin-releasing factor-binding protein (Homo sapiens, UniProt P24387+Q13324); assay: activators of CRF receptor 2 with binding protein – uHTS hits, confirmation (AID 602473); format: functional; conditions: read-out: EC50_Mean
# T2 sequence (Q13324 whole entry): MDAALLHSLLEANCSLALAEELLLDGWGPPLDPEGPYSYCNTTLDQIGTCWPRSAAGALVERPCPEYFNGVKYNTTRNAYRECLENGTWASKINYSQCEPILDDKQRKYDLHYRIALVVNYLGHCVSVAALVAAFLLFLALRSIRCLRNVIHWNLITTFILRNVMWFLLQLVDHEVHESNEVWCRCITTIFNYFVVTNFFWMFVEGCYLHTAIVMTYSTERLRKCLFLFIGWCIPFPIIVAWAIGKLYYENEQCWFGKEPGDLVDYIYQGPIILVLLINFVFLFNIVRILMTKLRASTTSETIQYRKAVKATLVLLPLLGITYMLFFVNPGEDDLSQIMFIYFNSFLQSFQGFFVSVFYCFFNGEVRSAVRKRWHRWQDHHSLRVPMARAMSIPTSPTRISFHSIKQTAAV
# T2 sequence (P24387 whole entry): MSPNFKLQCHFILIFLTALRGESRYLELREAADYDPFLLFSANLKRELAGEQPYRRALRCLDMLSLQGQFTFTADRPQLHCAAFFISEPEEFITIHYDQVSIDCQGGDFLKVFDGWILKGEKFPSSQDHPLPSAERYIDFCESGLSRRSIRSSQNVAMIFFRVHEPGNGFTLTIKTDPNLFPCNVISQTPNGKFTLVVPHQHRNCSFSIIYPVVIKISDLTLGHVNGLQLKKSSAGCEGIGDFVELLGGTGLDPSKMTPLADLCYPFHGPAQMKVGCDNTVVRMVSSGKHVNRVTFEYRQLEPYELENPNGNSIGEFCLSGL
# [11] = biological target: T2, Corticotropin-releasing factor receptor 2/Corticotropin-releasing factor-binding protein; assay: Dose Response confirmation of uHTS hits for small molecule antagonists of the CRF-binding protein and CRF-R2 receptor complex.; format: functional; conditions: read-out: IC50_Mean
# [12] = growth suppression of PTEN-null colon cells, dose response, cell-based, HCT116 PTEN knockout (AID 1047); format: functional;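 also: HCT116 colon tumor cells with PTEN knocked out; cells exposed to compound for 60 hours before readout; potency for loss of cell viability measured by luminescence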
# [13] = tested on: Streptococcus sp. 'group A'; assay: growth inhibition of control SK(-) GAS strain, dose response, counter-screen for streptokinase expression inhibitor project, luminescence, kanamycin, BacTiterGlo, confirmation (AID 1900); format: functional, organism-based
# Streptococcus = assay: Group A Streptococcus viability loss, dose response, counter-screen for streptokinase expression inhibitor project, luminescence, BacTiterGlo (AID 1915); format: functional, organism-based;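 also: potency for reduction of bacterial viability or growth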
# Streptokinase A = biological target: T3, Streptokinase A (Streptococcus pyogenes serotype M1, UniProt P10520); assay: S. pyogenes streptokinase expression inhibitors, potency, dose response, plasminogen activation absorbance, OD405 (AID 1914); format: functional, Streptococcus pyogenes M1 GAS;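 also: secreted streptokinase activity via plasminogen activation per viability signal from cell pellet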
# T3 sequence (P10520 whole entry): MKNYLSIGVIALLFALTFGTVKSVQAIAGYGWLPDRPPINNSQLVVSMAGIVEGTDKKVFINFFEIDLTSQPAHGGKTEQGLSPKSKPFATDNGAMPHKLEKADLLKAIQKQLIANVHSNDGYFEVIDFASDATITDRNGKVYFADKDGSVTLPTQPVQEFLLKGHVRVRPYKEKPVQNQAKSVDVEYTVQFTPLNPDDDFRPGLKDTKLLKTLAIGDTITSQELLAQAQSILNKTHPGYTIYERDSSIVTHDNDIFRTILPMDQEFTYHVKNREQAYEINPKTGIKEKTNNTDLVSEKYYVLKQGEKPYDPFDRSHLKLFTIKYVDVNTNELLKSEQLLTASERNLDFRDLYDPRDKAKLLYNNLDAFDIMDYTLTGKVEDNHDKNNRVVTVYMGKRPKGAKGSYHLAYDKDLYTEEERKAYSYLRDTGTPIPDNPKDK
# [14] = Shn3 3'UTR reporter inhibitors, dose response, cell-based, Clone20 osteoblasts, firefly luciferase, cherry-picked (AID 624132); format: functional;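 also: firefly luciferase luminescence from reporter carrying the Shn3 3'UTR in osteoblasts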
# P388/ADR = assay: cells; format: functional; conditions: Mus musculus
# SN12K1 = assay: cells; format: functional; conditions: Homo sapiens
structure (smiles),measurement,setting,value
Cc1ccc(-n2nc3c(N4CCC(C(=O)NCCc5ccccc5C)CC4)nnc(C)c3c2C)cc1,EC50,[1],> 120 µM (not active)
same,EC50,[2],39.8 µM (active)
same,EC50,[3],6.26 µM (active)
same,EC50,[4],0.941 µM (active)
same,EC50,[5],9.7 µM (active)
O=C1CC(c2cccc(Cl)c2)c2cc3c(cc2N1)CCC3 (stereo not given),EC50,[1],6.74 µM (active)
same,EC50,[2],11.9 µM (active)
same,EC50,[5],> 120 µM (not active)
Cc1nc2sc(C(c3cccc(F)c3)N3CCCC(C)C3)c(O)n2n1 (stereo not given),EC50,[6],> 150 µM (inactive)
same,EC50,[7],1.82 µM (active)
CC(=O)NCCC(=O)Nc1nc(-c2cccs2)c(-c2cccs2)s1,EC50,[8],> 260 µM (inactive)
Oc1cccc(-c2nc3c4c(ncn3n2)-c2ccccc2CC42CCCC2)c1,AC50,Cytochrome P450 2D6,0.631 µM (inconclusive)
same,AC50,Cytochrome P450 3A4,22.4 µM (inconclusive)
same,AC50,[9],1.16 µM (active)
Cn1nnc2c[n+](CC(=O)c3ccc4ccccc4c3)cc(Br)c21,EC50,[8],12.2 µM (active)
O=C(NCc1ccc(F)cc1)c1ccc(CS(=O)(=O)Cc2ccccc2F)o1,EC50,[6],> 150 µM (inactive)
same,EC50,[7],6.51 µM (active)
COc1cc(NC(=S)N2CCN(S(=O)(=O)c3ccccc3)CC2)cc(OC)c1,EC50,[6],> 160 µM (inconclusive)
same,EC50,[7],> 38 µM (not active)
CCOC(=O)C1CCCN(C(=O)c2ccc(Cl)c(S(=O)(=O)N3CCCCC3)c2)C1 (stereo not given),EC50,[8],> 260 µM (inactive)
same,EC50,[10],> 53 µM (inactive)
same,IC50,[11],> 47.1 µM (inactive)
O=[N+]([O-])CC(c1ccccc1)c1c(O)n[nH]c1-c1ccccc1O (stereo not given),EC50,[8],131 µM (active)
O=C(COC(=O)c1c2c(nc3ccccc13)CCCC2)Nc1ccc2c(c1)OCO2,EC50,[12],44.5 µM (active)
O=C1c2c(Br)c(Br)c(Br)c(Br)c2C(=O)N1c1ccccn1,AC50,[9],1.95 µM (active)
O=C(Nc1cccc(-c2csc(Nc3cccc(C(F)(F)F)c3)n2)c1)c1ccccc1,EC50,[13],4.47 µM (active)
same,EC50,Streptococcus,6.3 µM (active)
same,AC50,[9],1.6 µM (active)
same,EC50,Streptokinase A,> 150 µM (not active)
Cc1cc(-c2csc3ncnc(S)c23)cc(C)c1C,EC50,[13],1.31 µM (active)
same,EC50,Streptococcus,4.06 µM (active)
same,AC50,[9],12.8 µM (active)
O=C1NC2(CCC3(CC2)OCCO3)NN1c1ccccc1,EC50,[6],> 160 µM (inconclusive)
same,EC50,[7],> 38 µM (not active)
CCC(Oc1ccccc1)C(=O)Nc1ncc([N+](=O)[O-])s1 (stereo not given),EC50,[6],> 160 µM (inactive)
same,EC50,[7],1.5 µM (active)
COc1nc(N2CCCCCC2)nc(N2CCCCCC2)n1,AC50,[9],6.21 µM (active)
COC(=O)N1C(=O)[C@@](c2ccccc2)(C2CCCC2)N1C(=O)OC,EC50,[8],14.9 µM (active)
CC(C)(C)c1ccc(Oc2ccc(NC(=O)c3cccs3)cn2)cc1,AC50,[9],3.9 µM (active)
Cc1ccc(NC(=O)c2cc3c(=O)oc4ccccc4c3s2)nc1,EC50,[8],> 260 µM (inactive)
CCN(CC(=O)Nc1ccc(NC(C)=O)cc1)Cc1c(O)ccc2cc(Br)ccc12,EC50,[8],8.46 µM (active)
CCS(=O)(=O)c1ccc2oc(SCC(=O)N3CCCCC3)nc2c1,AC50,[14],> 70 µM (inactive)
CN(C)c1nc(NC(C)(C)C)nc(SCC(=O)Nc2ccccc2)n1,EC50,[8],> 260 µM (inactive)
COc1ccccc1-c1c(C(F)(F)F)oc2cc(OCC(=O)Nc3cc(C)ccc3C)ccc2c1=O,EC50,[1],> 120 µM (not active)
same,EC50,[2],> 120 µM (not active)
same,EC50,[5],> 120 µM (not active)
CCOc1ccc(C2C3=C(O)CCCC3=Nc3ccc4ncccc4c32)cc1 (stereo not given),EC50,[8],14.1 µM (active)
CCCCN=C(S)N(Cc1ccco1)Cc1cc2cc3c(cc2nc1O)OCCO3,EC50,[8],> 260 µM (inactive)
Cc1cc(OCc2cc(C(=O)N3CCC(Oc4cccnc4)CC3)no2)cc(C)c1Cl,AC50,[9],7.55 µM (active)
Cc1ccc(-c2nnn(CC(=O)N(Cc3ccco3)C(C(=O)NC(C)(C)C)c3ccncc3)n2)o1 (stereo not given),EC50,[6],> 150 µM (inactive)
same,EC50,[7],> 38 µM (not active)
Cc1ccc(-n2c(SCC(=O)Nc3cc(S(=O)(=O)N4CCOCC4)ccc3Cl)nc3ccccc3c2=O)cc1,EC50,[8],> 260 µM (inactive)
COc1cc(/C=C(\C#N)C(N)=O)cc(Br)c1O,GI50,P388/ADR,> 100 µM (inactive)
same,GI50,SN12K1,95.3 µM (inactive)
CCCOc1cccc(C(=O)N/N=C/c2coc3ccccc3c2=O)c1,EC50,[6],28.2 µM (active)
same,EC50,[7],> 38 µM (not active)
CC1CCN(Cc2c(C(=O)N/N=C/c3ccc(C(C)(C)C)cc3)nnn2-c2nonc2N)CC1,EC50,[1],> 120 µM (not active)
same,EC50,[2],14.1 µM (active)
same,EC50,[5],9.56 µM (active)
Cc1onc(-c2ccccc2)c1C(=O)N/N=C/c1cccc(O)c1,EC50,[8],> 260 µM (inactive)
COC(=O)/C(=C\Nc1ccccc1N)c1ncc(C(F)(F)F)cc1Cl,EC50,[8],> 260 µM (inactive)
CCOC(=O)C1=C(C)N=c2s/c(=C\C(=O)OC)c(=O)n2C1c1ccc(OC)cc1 (stereo not given),EC50,[8],10.1 µM (active)
COc1ccc(/C=N/NC(=O)C2C3CCCCC32)cc1OC (stereo not given),EC50,[1],67.5 µM (active)
same,EC50,[2],> 120 µM (not active)
same,EC50,[5],> 120 µM (not active)
